We go through eight compounds from US10717746B2, “Chemical compounds” (ASTRAZENECA AB, priority 2015, dated 2020).

Where only a bound is given, the exact number is not on record here.

One test relates to MV411 cells. Put plainly: MV411 caspase activity assay (Caspase-Glo 3/7). The settings on record: Homo sapiens, MV4-11, 6 h, 6-hr treatment, caspase 3/7 induction. The format is cell-based. The procedure:
MV411 Caspase Activity Assay
This is a cell assay to measure the induction of caspase activity in the acute myeloid leukemia cell line, MV411 after 6-hr treatment with CDK9 inhibitors. On the first day, 3000 MV411 cells/well were seeded in 50 μl of growth media (IMDM+10% FBS+2% L-Glu+P/S) in 384-well white plates, incubate plates in 37° C. incubator overnight. […] After 6 hour incubation in 37° C. incubator, 25 μl of Caspase-Glo 3/7 reagent (Promega) per well was added into each well, and plates were incubated at room temperature for 30 min in dark. The plates were read on an Infinite M200 microplate reader (Tecan) with a 100 ms integration time.

Test [1] concerns the target T1, CDK9/CycT1 (Homo sapiens (Human), UniProt P50750). Put plainly: CDK9 kinase assay, ATP concentration at Km (mobility shift, Caliper LC3000). It counts as biochemical. As to conditions: 6 μM ATP, 3 nM CDK9/CycT1; read-out: CDK9 ATP conc. at Km (IC50). The procedure:
(§1) Activity of CDK9 was determined in-vitro using a mobility shift assay on a Caliper LC3000 reader (Caliper/PerkinElmer), which measures fluorescence of a phosphorylated and unphosphorylated fluorescent peptide substrate and calculates a ratiometric value to determine percent turnover. Phosphorylation of the peptide in the presence and absence of the compound of interest was determined. Enzyme/substrate/adenosine triphosphate (ATP) mix (3 nM CDK9/CycT1, 6 μM ATP, 1.5 μM CDK9 peptide substrate (FITC-X-GSRTPMY-NH2 (X: epsilon aminocaproic acid)), 50 mM HEPES (pH7.2), 1 mM dithiothreitol, 0.01% tween 20, 50 μg/mL bovine serum albumin, (final assay concentration)) (5 μl) was preincubated with 2 μl of compound for 15 minutes at 25° C. Reactions were initiated with 5 μl of 24 mM MgCl2 (10 mM final assay concentration) in buffer (50 mM HEPES (pH7.2), 1 mM dithiothreitol, 0.01% tween 20, 50 μg/mL bovine serum albumin, (final assay concentration) and incubated at 25° C. for 90 minutes and reactions were stopped by addition of 5 μl of Stop mix consisting of 65 mM HEPES (pH7.2), 35.5 mM EDTA, 0.227% Coatin Reagent 3 (Caliper/PerkinElmer), and 0.003% Tween. Phosphorylated and unphosphorylated substrate was detected by a Caliper LC3000 reader (Caliper/PerkinElmer) in the presence of separation buffer consisting of 100 mM HEPES (pH7.2), 15.8 mM EDTA, 0.1% Coatin Reagent 3 (Caliper/PerkinElmer), 0.015% Brij-35, 5% DMSO, and 5.6 mM MgCl2. CDK9 enzyme was acquired from Carna Biosciences (Catalogue number 04-110), the CDK9 peptide substrate was acquired from Intonation (Boston, Mass.; Custom-made).

The target of test [2] is T1, CDK9/CycT1. Put plainly: CDK9 kinase assay, high ATP concentration (5 mM ATP). The settings on record: 1.5 nM CDK9, read-out: CDK9 High ATP conc. (IC50). It counts as biochemical. Here is the method: as §1
High ATP assays were run the same way with the following modifications: the final assay concentration of CDK9 was 1.5 nM and the final assay concentration of ATP was 5 mM.

Test [3] relates to phosphorylation of RNA Polymerase II (RNAPII) at the Ser2 site in MCF7 cells. Put plainly: MCF7 pSer2 RNAPII MOA assay (immunofluorescence). The format is cell-based. As to conditions: Homo sapiens, MCF7, 6 h, 6-hr treatment, read-out: p-Ser 2 RNAPII (IC50). Here is the method:
MCF7 pSer2 RNAPII MOA Assay
This is an immunofluorescence assay to determine the effect of CDK9 inhibitors on phosphorylation of RNA Polymerase II (RNAPII) at the Ser2 site in the breast cancer cell line, MCF7. On day one, 2500 MCF7 cells/well were seeded in 30 μl of growth media (RPMI+10% FBS+1% L-Glu+P/S) in 384-well black-wall clear-bottom plates, incubate plates overnight at 37° C. incubator. On the second day, the cells were treated with CDK9 inhibitors (7 point dose response ranging from 3 μM to 0.004 μM) using an ECHO liquid handler (Labcyte). After 6-hr treatment at 37° C. incubator, the cells were fixed with 30 µl/well 7.4% paraformaldehyde for 15 min at room temperature; the cells were washed twice with PBS, then permeabilized with 0.3% Triton X/PBS for 5 min at room temperature. After washing cells with PBS, the cells were incubated with 1:2000 diluted Anti-Ser2 Phospho-RNA pol II antibody (Covance MMS-129R) in 3% FBS/0.1% PBST overnight at 4° C. On the next day, the cells were washed twice with 0.1% PBST, then incubated with 1:1000 diluted Alexa Fluor 488 Goat-anti-mouse antibody (Life Technologies A-11001) and 1:4000 diluted DAPI at room temperature in dark. After one hour incubation, the cells were washed twice with 0.1% PBST, and once with PBS. The plates where sealed and read on an Acumen eX3 microplate cytometer (TTP Labtech) to assess phosphorylation level in each well.

As a reminder, the IC50 is the point on the concentration scale where inhibition reaches its midpoint.

T1 sequence (P50750 whole entry): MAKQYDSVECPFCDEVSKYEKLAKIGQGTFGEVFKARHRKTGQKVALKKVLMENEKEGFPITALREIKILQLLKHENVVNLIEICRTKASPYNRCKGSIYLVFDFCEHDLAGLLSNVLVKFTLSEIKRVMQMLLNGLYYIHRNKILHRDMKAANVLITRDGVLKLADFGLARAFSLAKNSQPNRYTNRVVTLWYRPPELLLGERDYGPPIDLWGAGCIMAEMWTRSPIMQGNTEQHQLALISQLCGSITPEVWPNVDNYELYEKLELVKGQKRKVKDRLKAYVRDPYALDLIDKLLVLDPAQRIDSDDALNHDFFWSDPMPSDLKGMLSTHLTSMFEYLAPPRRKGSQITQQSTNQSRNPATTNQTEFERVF
T1 sequence (O60563 whole entry partner): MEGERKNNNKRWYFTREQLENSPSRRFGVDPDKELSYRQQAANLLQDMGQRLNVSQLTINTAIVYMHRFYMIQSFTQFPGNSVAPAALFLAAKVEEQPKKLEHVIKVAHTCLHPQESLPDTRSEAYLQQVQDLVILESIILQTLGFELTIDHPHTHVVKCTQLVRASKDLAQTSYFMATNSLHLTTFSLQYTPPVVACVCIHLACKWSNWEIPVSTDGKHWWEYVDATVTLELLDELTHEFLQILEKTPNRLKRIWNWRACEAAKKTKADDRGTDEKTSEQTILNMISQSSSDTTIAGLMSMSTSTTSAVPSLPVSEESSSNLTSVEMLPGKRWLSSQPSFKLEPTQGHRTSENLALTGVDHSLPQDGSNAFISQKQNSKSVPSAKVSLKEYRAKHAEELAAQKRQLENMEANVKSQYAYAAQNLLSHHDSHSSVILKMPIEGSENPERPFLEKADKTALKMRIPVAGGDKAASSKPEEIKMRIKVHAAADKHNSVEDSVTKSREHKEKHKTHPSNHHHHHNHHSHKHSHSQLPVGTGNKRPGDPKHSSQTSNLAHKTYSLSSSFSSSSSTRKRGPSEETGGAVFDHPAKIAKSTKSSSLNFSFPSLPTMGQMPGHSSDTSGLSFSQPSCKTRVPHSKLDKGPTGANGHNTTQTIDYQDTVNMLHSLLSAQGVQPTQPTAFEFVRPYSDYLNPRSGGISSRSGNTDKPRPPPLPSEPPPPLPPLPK

Consider `O=C(N[C@@H]1CCC[C@H](C(=O)Nc2cc(-c3cnn4c3CCCC4)c(Cl)cn2)C1)C1COC1` [Example 67, N-((1R,3S)-3-((5-chloro-4-(4,5,6,7-tetrahydropyrazolo[1,5-a]pyridin-3-yl)pyridin-2-yl)carbamoyl)cyclohexyl)oxetane-3-carboxamide], for which the IC50 in the test with MV411 cells is 99 nM; at CDK9/CycT1 [1], less than 3 nM; on CDK9/CycT1 [2], 19 nM; in test [3], 62 nM.
For `CC(=O)N[C@H]1CCC[C@H](C(=O)Nc2cc(-c3cnn4c3CC(C)(C)C4)c(F)cn2)C1` (relative stereo) [Example 84, (1S,3S)-3-acetamido-N-(4-(5,5-dimethyl-5,6-dihydro-4H-pyrrolo[1,2-b]pyrazol-3-yl)-5-fluoropyridin-2-yl)cyclohexane-1-carboxamide], in that order: 2520 nM, 28 nM, 2130 nM and greater than 1950 nM.
For `CC(=O)N[C@@H]1CCC[C@H](C(=O)Nc2cc(-c3cnn4c3CC(C)(C)C4O)c(Cl)cn2)C1` (stereo partly drawn) [Example 82, (1S,3R)-3-acetamido-N-(5-chloro-4-(6-hydroxy-5,5-dimethyl-5,6-dihydro-4H-pyrrolo[1,2-b]pyrazol-3-yl)pyridin-2-yl)cyclohexane-1-carboxamide], in that order: 124 nM, less than 4 nM, 22 nM and 174 nM.
As for `CC(=O)N[C@@H]1CCC[C@H](C(=O)Nc2cc(-c3cnn4c3COCC4)c(Cl)cn2)C1` [Example 11, (1S,3R)-3-acetamido-N-(5-chloro-4-(6,7-dihydro-4H-pyrazolo[5,1-c][1,4]oxazin-3-yl)pyridin-2-yl)cyclohexanecarboxamide], the IC50 turned out to be 1930 nM in the test on MV411 cells, 11 nM on CDK9/CycT1 [1], 1200 nM at CDK9/CycT1 [2] and 2700 nM in test [3].
For `CC1(C)CCn2ncc(-c3cc(NC(=O)[C@H]4CCC[C@@H](N)C4)ncc3F)c2C1` [Example 51a, (1S,3R)-3-amino-N-(4-(5,5-dimethyl-4,5,6,7-tetrahydropyrazolo[1,5-a]pyridin-3-yl)-5-fluoropyridin-2-yl)cyclohexanecarboxamide], in that order: 228 nM, less than 3 nM, 148 nM and 292 nM.
For `CC(=O)N[C@@H]1CCC[C@H](C(=O)Nc2cc(-c3cnn4c3CC(C)(C)C4)c(C#N)cn2)C1` [Example 39, (1S,3R)-3-acetamido-N-(5-cyano-4-(5,5-dimethyl-5,6-dihydro-4H-pyrrolo[1,2-b]pyrazol-3-yl)pyridin-2-yl)cyclohexanecarboxamide], in that order: 145 nM, less than 3 nM, 62 nM and 147 nM.
In the case of `CC1(C)Cc2ncc(-c3cc(NC(=O)[C@H]4C[C@@H](O)C4)ncc3Cl)n2C1` [Example 58, cis-N-(5-chloro-4-(6,6-dimethyl-6,7-dihydro-5H-pyrrolo[1,2-a]imidazol-3-yl)pyridin-2-yl)-3-hydroxycyclobutanecarboxamide], the IC50 in the test on MV411 cells is 76 nM; at CDK9/CycT1 [1], less than 3 nM; on CDK9/CycT1 [2], 41 nM; in test [3], 17 nM.
For `O=C(Nc1cc(-c2cnn3c2CCCC3)c(Cl)cn1)[C@H]1CCC[C@@H](NC(=O)[C@@H]2CCOC2)C1` [Example 33, (R)—N-((1R,3S)-3-((5-chloro-4-(4,5,6,7-tetrahydropyrazolo[1,5-a]pyridin-3-yl)pyridin-2-yl)carbamoyl)cyclohexyl)tetrahydrofuran-3-carboxamide], in that order: 171 nM, less than 3 nM, 19 nM and 57 nM.
